These results are taken from publication PMC2790922 (Molecular pharmaceutics, 2009).

The target of experiment [1] is T1, human recombinant active MMP-2 (Homo sapiens, UniProt P08253).
T1 sequence (P08253 110-660): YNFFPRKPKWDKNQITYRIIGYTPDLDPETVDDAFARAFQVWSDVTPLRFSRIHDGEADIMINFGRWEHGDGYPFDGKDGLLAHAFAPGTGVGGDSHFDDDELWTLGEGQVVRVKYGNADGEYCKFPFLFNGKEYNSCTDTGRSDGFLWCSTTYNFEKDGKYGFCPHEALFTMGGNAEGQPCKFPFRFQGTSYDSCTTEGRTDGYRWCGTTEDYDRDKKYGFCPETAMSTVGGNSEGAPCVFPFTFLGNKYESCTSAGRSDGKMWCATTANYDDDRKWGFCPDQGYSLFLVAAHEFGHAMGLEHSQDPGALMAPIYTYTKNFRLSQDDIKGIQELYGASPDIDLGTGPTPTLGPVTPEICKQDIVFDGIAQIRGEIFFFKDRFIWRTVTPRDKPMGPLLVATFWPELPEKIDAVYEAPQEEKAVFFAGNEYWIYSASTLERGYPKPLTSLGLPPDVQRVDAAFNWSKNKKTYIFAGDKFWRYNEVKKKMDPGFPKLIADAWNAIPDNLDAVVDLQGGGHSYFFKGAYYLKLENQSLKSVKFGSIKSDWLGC
Briefly: Cleavage of peptides by purified active MMP-2. The experiment is classed as biochemical. The settings on record: 10 µM GM6001; 9 nM active MMP-2; 37°C, 2 h; FAM fluorescence.

The subject of a further experiment is MMP-2 from HUVECs. Nature of the experiment: Peptide cleavage by MMP-2 in PMA-treated HUVECs culture. As to conditions: 25 µM GM6001, 30 min pre-treatment; 10 µM MMP-RGD; 24 h; p = 0.041. The experiment is classed as cell-based, human.

Regarding `CNC(=O)[C@H](Cc1c[nH]c2ccccc12)NC(=O)[C@@H](CC(=O)NO)CC(C)C` [GM6001], the “inhibition of cleavage of MMP-RGD and MMP-control by purified MMP-2” value in experiment [1] is “inhibited”. For the same compound, the “inhibition of cleavage of MMP-RGD by PMA-treated HUVECs” value in the experiment with MMP-2 from HUVECs is “inhibited”.
